Reference: patent publication US4161595A, “Levulinic acid salt” (Bristol-Myers Company, priority 1978, dated 1979)
≈ marks a conversion by molar mass, not a printed value. Structures can show the parent of a compound that is named as a salt.

Tests used:
[1] = Comparative water stability of 1:1 and 1:1.3 levulinate salts; assay type: physicochemical
[2] = Comparative water solubility of 1:1 and 1:1.3 levulinate salts; assay type: physicochemical
[3] = Comparative quantitative solubility study in water and methylene chloride; assay type: physicochemical; conditions: 25° C.; for Solubility in Methylene Chloride: measure of lipid solubility
Description: In comparison to the hydrochloride salt of BL-5111, the 1:1.3 levulinate salt form has substantially greater water and lipid solubility. TABLE 3 below sets forth results of a comparative quantitative study of the BL-5111 hydrochloride and the 1:1.3 levulinate salt in water and methylene chloride. Solubility in methylene chloride is a measure of lipid solubility which plays an important role in any distribution in the body.

[4] = Plasma levels in dogs after oral administration by gavage; assay type: in vivo; conditions: equivalent to 10 mg. BL-5111 free base, fasted beagle dogs
Description: With respect to oral administration, the BL-5111 levulinate provides improved absorption compared to the hydrochloride salt as illustrated by enhanced plasma levels in dogs. Thus, BL-5111 levulinate (equivalent to 10 mg. of BL-5111 free base) was orally administered by gavage as a solution in 5 ml. of water followed by 20 ml. of water to beagle dogs which had been fasted 12 to 15 hours. The BL-5111 hydrochloride (equivalent to 10 mg. of the BL-5111 free base) was likewise administered with the exception that a suspension was employed due to tendency of the hydrochloride to dissolve at a rate appreciably slower than the levulinate. […] Moreover, maximum plasma level following administration was approximately three-fold greater for the levulinate than the hydrochloride while the extent of absorption of BL-5111 levulinate (determined by comparison of the area under plasma concentration-time curves taken over a period of 24 hr.) was more than double that of BL-5111 hydrochloride.

[5] = In situ solubility of acid addition salts of BL-5111 in water; assay type: physicochemical; conditions: for Solubility 50° C. / Solubility 25° C.: 10 mg. BL-5111 free base in 0.3 ml. water with excess of the acid; for Solubility 25° C.: room temperature (about 25° C.)

SMILES	Solubility 50° C. [5]	Solubility 25° C. [5]	further results
COc1cc2nc(N3CCN(C(=O)c4nnc(SC)o4)CC3)nc(N)c2cc1OC [1:1, levulinic acid salt of 4-amino-6,7-dimethoxy-2-[4-(5-methylthio-1,3,4-oxadiazole-2-carbonyl)-piperazin-1-yl]quinazoline]			Solubility and stability relative to the 1:1.3 levulinate ([1]; water, Table 2 data): relatively less soluble and stable; Solubility ([2]; 2.5 mg./ml., at 50° C.): soluble; Solubility ([2]; 10 mg./ml., at 50° C.): soluble; Solubility ([2]; 50 mg./ml., at 80° C.): insoluble
COc1cc2nc(N3CCN(C(=O)c4nnc(SC)o4)CC3)nc(N)c2cc1OC [1:1.3 levulinate, 4-AMINO-6,7-DIMETHOXY-2-[4-(5-METHYLTHIO-1,3,4-OXADIAZOLE-2-CARBONYL)-PIPERAZIN-1-YL]QUINAZOLINE LEVULINATE]			Solubility in Water [3]: 38.0 mg/mL (≈ 88.1 mM); Water solubility, times that of the hydrochloride salt [3]: about 8.6 times; Solubility in Methylene Chloride [3]: > 100 mg/mL; Stability of aqueous solution ([1]; room temperature): stable; Stability ([1]; water, 10 mg./ml., room temperature, listed as 1:1.3): stable; Stability ([1]; water, 50 mg./ml., room temperature): stable; Solubility ([2]; 10 mg./ml., room temperature): soluble; Solubility ([2]; 50 mg./ml., at 50° C.): soluble; Maximum plasma level relative to the hydrochloride [4]: approximately three-fold; Extent of absorption (area under plasma concentration-time curves) relative to BL-5111 hydrochloride ([4]; over 24 hr.): more than double
COc1cc2nc(N3CCN(C(=O)c4nnc(SC)o4)CC3)nc(N)c2cc1OC [acetic]	+ (soluble (+))	+ (soluble (+))	Solubility ([5]; room temperature, 10 mg./0.3 ml. water, read-out: Solubility sufficient to provide a solution): ≥ 33 mg/mL
COc1cc2nc(N3CCN(C(=O)c4nnc(SC)o4)CC3)nc(N)c2cc1OC [formic]	+ (soluble (+))	± (questionable (±))	
COc1cc2nc(N3CCN(C(=O)c4nnc(SC)o4)CC3)nc(N)c2cc1OC [fumaric]	- (insoluble (-))	- (insoluble (-))	
COc1cc2nc(N3CCN(C(=O)c4nnc(SC)o4)CC3)nc(N)c2cc1OC [hydrobromic]	- (insoluble (-))	- (insoluble (-))	
COc1cc2nc(N3CCN(C(=O)c4nnc(SC)o4)CC3)nc(N)c2cc1OC [hydrochloride]			Solubility 50° C. ([5]; listed as hydrochloric): - (insoluble (-)); Solubility 25° C. ([5]; listed as hydrochloric): - (insoluble (-)); Solubility in Water [3]: 4.42 mg/mL; Solubility in Methylene Chloride [3]: < 1 mg/mL; Time at which maximum plasma levels reached ([4]; levulinate as solution, hydrochloride as suspension, listed as BL-5111 hydrochloride): 2 h
COc1cc2nc(N3CCN(C(=O)c4nnc(SC)o4)CC3)nc(N)c2cc1OC [isethionic]	- (insoluble (-))	- (insoluble (-))	
COc1cc2nc(N3CCN(C(=O)c4nnc(SC)o4)CC3)nc(N)c2cc1OC [methanesulfonic]	- (insoluble (-))	- (insoluble (-))	
COc1cc2nc(N3CCN(C(=O)c4nnc(SC)o4)CC3)nc(N)c2cc1OC [nitric]	- (insoluble (-))	- (insoluble (-))	
COc1cc2nc(N3CCN(C(=O)c4nnc(SC)o4)CC3)nc(N)c2cc1OC [phosphoric]	- (insoluble (-))	- (insoluble (-))	
COc1cc2nc(N3CCN(C(=O)c4nnc(SC)o4)CC3)nc(N)c2cc1OC [succinic]	+ (soluble (+))	- (insoluble (-))	
COc1cc2nc(N3CCN(C(=O)c4nnc(SC)o4)CC3)nc(N)c2cc1OC [sulfuric]	- (insoluble (-))	- (insoluble (-))	
